The pIC50 is the negative decadic logarithm of the IC50, by convention in mol/L. A lower pIC50 goes with a high IC50. One may read the CC50 as the concentration that lowers cell viability or growth by half. As usually defined, the pEC50 is the negative decadic logarithm of the EC50, by convention in mol/L. Low values mean a large EC50, high ones a small EC50.

pEC50, pIC50: −log10 of the molar value. A value given as a limit tells only on which side of the number the result lay.

Data set [1] concerns the target PA/PB1 (Influenza A virus (A/Puerto Rico/8/1934(H1N1)), UniProt P03431+P03433). The experiment in a line: Inhibition of Influenza A virus (A/Puerto Rico/8/34(H1N1)) His6-tagged PA (239 to 716) interaction with GST-tagged PB1 (1 to 25) expressed in Escherichia coli BL21 (DE3) by ELISA. For orientation: ELISA stands for enzyme-linked immunosorbent assay.
Data set [2] in a line: Cytotoxicity against MDCK cells assessed as cell viability after 48 hrs by MTT assay. In kind it is cell-based, Canis lupus familiaris. Conditions: dog.
The subject of data set [3] is Influenza A virus. In kind it is functional, organism-based. Conditions: A/Puerto Rico/8/1934(H1N1), MDCK, 48 h.
Data set [4] is described as follows: Cytotoxicity against HEK293 cells assessed as cell viability after 24 hrs by MTT assay. Format: cell-based. Conditions: human. (In general: Tetrazolium dyes change colour on reduction, which living cells bring about.)
The nature of data set [5]: cells. As to conditions: Influenza A virus, HEK293, 24 h.
The test system of data set [6] is Influenza B virus. The experiment in a line: microbe, parasite or virus in culture. Conditions: B/Lee/1940, MDCK, 48 h.
For data set [7], the system named is Influenza A virus. In kind it is functional, organism-based. Conditions: A/Puerto Rico/8/1934(H1N1), MDCK, 12 h.
Data set [8] deals with Influenza A virus. Format: functional, organism-based, Influenza A virus (A/Wisconsin/67/2005(H3N2)). As to conditions: MDCK, 48 h.
Data set [9] deals with Influenza A virus. Format: functional, organism-based. Conditions: A/Padova/253/2011(H1N1), MDCK, 48 h.
Data set [10] concerns Influenza A virus. In kind it is functional, organism-based. Conditions: A/Padova/72/2011(H1N1), MDCK, 48 h.
Data set [11] deals with Influenza A virus. Format: functional, organism-based. As to conditions: A/Padova/30/2011(H1N1), MDCK, 48 h.

For the molecule `O=C(CCc1ccc(F)cc1)Nc1sc2c(c1C(=O)Nc1ccccn1)CCCCC2`, in data set [1], the pIC50 is below 3.70.

For `CCOC(=O)c1c(NC(=O)c2ccc(F)cc2)sc2c1CCCCC2`, the CC50 at 48 h in [2] is above 250 µM. In data set [3], this molecule showed a negative-log EC50 (pEC50) of 4.04. For the same molecule, in data set [4], the CC50 at 24 h was above 250 µM. Further, the pIC50 in data set [1] is below 3.70.

Take `O=C(Nc1sc2c(c1C(=O)Nc1ccccn1)CCCCC2)c1ccc(F)cc1Cl`: the pIC50 in [1] was below 3.70.

Consider `NC(=O)c1c(NC(=O)c2ccccc2F)sc2c1CCCCC2`, for which the pIC50 in [1] is below 3.70.

In turn, `O=C(Nc1sc2c(c1C(=O)Nc1ccccn1)CCCCC2)c1ccccc1Cl` showed a pIC50 in data set [1] of 3.87.

Turning to `O=C(Nc1sc2c(c1C(=O)O)CCCCC2)c1ccccc1F`, in data set [2], the cytotoxic concentration (CC50) at 48 h is above 250 µM. Further, in [3], the pEC50 is 4.12. Further, the CC50 at 24 h in data set [4] was above 250 µM. The pIC50 in [1] is 3.70.

`O=C(Nc1sc2c(c1C(=O)O)CCCCC2)c1ccc(F)cc1` showed a pIC50 in data set [1] below 3.70.

Consider `NC(=O)c1ncn([C@@H]2O[C@H](CO)[C@@H](O)[C@H]2O)n1` [RIBAVIRIN], for which the CC50 at 48 h in data set [2] is above 250 µM. The negative-log EC50 (pEC50) in [3] is 5.10; in data set [5] it was 4.82; in data set [6], 5.22; in [7], 5.70; in [8], 4.92; in [9], 4.96. Besides, the pEC50 was 5.22 in [10] and 5.15 in data set [11]. Moreover, in [4], the CC50 at 24 h is above 250 µM.

In the case of `O=C(Nc1sc2c(c1C(=O)O)CCCCC2)c1ccc(Cl)cc1`, the pIC50 in [1] was below 3.70.

As to `O=C(CCc1ccccc1)Nc1sc2c(c1C(=O)Nc1ccccn1)CCCCC2`, the pIC50 in [1] is below 3.70.

For `O=C(Nc1sc2c(c1C(=O)Nc1ccccn1)CCCC2)c1ccccc1F`, the pIC50 in data set [1] is below 3.70.

Take `CCOC(=O)c1c(NC(=O)c2ccc(Cl)cc2)sc2c1CCCCC2`: in data set [2], the CC50 at 48 h is above 250 µM. In addition, in data set [3], the pEC50 was 4.05. In addition, the CC50 at 24 h in [4] was above 250 µM. The same molecule gave a pIC50 in [1] below 3.70.

`O=C(Nc1sc2c(c1C(=O)Nc1ccccn1)CCCCC2)c1ccccc1` had a negative logarithm of the IC50 (pIC50) in data set [1] of 4.06.

Take `O=C(Cc1ccc(Cl)cc1)Nc1sc2c(c1C(=O)Nc1ccccn1)CCCCC2`: the CC50 at 48 h in data set [2] was above 250 µM. Also, the pEC50 in data set [3] is 4.72. The CC50 at 24 h in data set [4] was above 250 µM. In [1], this molecule had a pIC50 below 3.70.

Take `O=C(Nc1sc2c(c1C(=O)O)CCCCC2)c1ccccc1Cl`: the pIC50 in [1] was below 3.70.

Consider `O=C(Nc1sc2c(c1C(=O)O)CCC2)c1ccccc1F`, for which the cytotoxic concentration (CC50) at 48 h in [2] was above 250 µM. This molecule also gave a pEC50 in [3] of 4.11. Moreover, the CC50 at 24 h in data set [4] was above 250 µM. Also, the pIC50 in [1] is 3.80.

As to `O=C(CCc1ccc(Cl)cc1)Nc1sc2c(c1C(=O)Nc1ccccn1)CCCCC2`, the pIC50 in data set [1] was below 3.70.

In the case of `CCOC(=O)c1c(NC(=O)c2ccccc2F)sc2c1CCC2`, the half-maximal cytotoxic concentration (CC50) at 48 h in [2] was above 250 µM. The molecule further showed a pEC50 in data set [3] below 4.00. Besides, the CC50 at 24 h in data set [4] was above 250 µM. The molecule also showed a negative logarithm of the IC50 (pIC50) in [1] below 3.70.

In data set [1], `O=C(Nc1sc2c(c1C(=O)Nc1ccccn1)CCCCC2)c1cccc(F)c1` had a pIC50 below 3.70.

For `O=C(CC1CCCCC1)Nc1sc2c(c1C(=O)Nc1ccccn1)CCCCC2`, in data set [1], the pIC50 is below 3.70.

In the case of `CSCC[C@H](N)C(=O)N[C@@H](CC(=O)O)C(=O)N[C@H](C(=O)N[C@@H](CC(N)=O)C(=O)N1CCC[C@H]1C(=O)N[C@H](C(=O)N[C@@H](CC(C)C)C(=O)N[C@@H](CC(C)C)C(=O)N[C@@H](Cc1ccccc1)C(=O)N[C@@H](CC(C)C)C(=O)N[C@@H](CCCCN)C(=O)N[C@H](C(=O)N1CCC[C@H]1C(=O)N[C@@H](C)C(=O)N[C@@H](CCC(N)=O)C(=O)O)C(C)C)[C@@H](C)O)C(C)C`, the CC50 at 48 h in data set [2] is above 100 µM. This molecule had a pEC50 in data set [3] of 4.40. Besides, the CC50 at 24 h in data set [4] was above 100 µM. The molecule also showed a pIC50 in data set [1] of 4.46.

Take `O=C(Cc1ccc2ncccc2c1)Nc1sc2c(c1C(=O)Nc1ccccn1)CCCCC2`: the 50% cytotoxic concentration (CC50) at 48 h in data set [2] is above 250 µM. The same molecule had a pEC50 in data set [3] of 4.24. The CC50 at 24 h in data set [4] was above 250 µM. In data set [1], this molecule had a pIC50 of 4.32.

With `O=C(Nc1sc2c(c1C(=O)Nc1ccccn1)CCCCC2)c1ccc(Cl)cc1Cl`, the pIC50 in data set [1] was below 3.70.

As for `COc1ccc(C(=O)Nc2sc3c(c2C(=O)O)CCCCC3)cc1`, the pIC50 in data set [1] is below 3.70.

As to `CCOC(=O)c1c(NC(=O)c2ccc(OC)cc2)sc2c1CCCCC2`, in [2], the CC50 at 48 h is above 250 µM. The pEC50 in data set [3] is 4.02. The CC50 at 24 h in data set [4] is above 250 µM. In data set [1], this molecule showed a pIC50 below 3.70.

For the molecule `CCOC(=O)c1c(NC(=O)c2ccccc2Cl)sc2c1CCCCC2`, in [2], the CC50 at 48 h was above 250 µM. For the same molecule, the pEC50 in data set [3] is 4.03. The CC50 at 24 h in [4] was above 250 µM. In data set [1], this molecule showed a negative logarithm of the IC50 (pIC50) below 3.70.

In the case of `O=C(Cc1ccccc1)Nc1sc2c(c1C(=O)Nc1ccccn1)CCCCC2`, in [2], the 50% cytotoxic concentration (CC50) at 48 h was above 250 µM. This molecule also showed a pEC50 in data set [3] of 4.72. The CC50 at 24 h in data set [4] is 220 µM. For the same molecule, the pIC50 in [1] is below 3.70.

`O=C(Nc1sc2c(c1C(=O)Nc1ccccn1)CCCCC2)c1ccc(F)cc1`: in data set [1], the pIC50 was 4.00.

In [1], `O=C(Nc1sc2c(c1C(=O)Nc1ccccn1)CCCCC2)c1ccc(Cl)cc1` had a pIC50 of 4.49.

For the molecule `O=C(Nc1sc2c(c1C(=O)Nc1ccccn1)CCC2)c1ccccc1F`, the negative-log IC50 (pIC50) in data set [1] was below 3.70.

For `NC(=O)c1c(NC(=O)c2ccccc2F)sc2c1CCCC2`, in [2], the CC50 at 48 h was determined as 118 µM. This molecule also showed a pEC50 in data set [3] below 4.00. Also, in data set [4], the CC50 at 24 h was 31 µM. The pIC50 in data set [1] is below 3.70.

On to `NC(=O)c1c(NC(=O)c2ccccc2F)sc2c1CCC2`, for which, in [1], the negative-log IC50 (pIC50) is below 3.70.

In the case of `O=C(Cc1ccc(F)cc1)Nc1sc2c(c1C(=O)Nc1ccccn1)CCCCC2`, the CC50 at 48 h in data set [2] was above 250 µM. This molecule had a pEC50 in data set [3] of 4.80. For the same molecule, in data set [4], the CC50 at 24 h was 250 µM. In addition, the pIC50 in data set [1] is below 3.70.

On to `CCOC(=O)c1c(NC(=O)c2ccccc2F)sc2c1CCCCC2`, for which the CC50 at 48 h in data set [2] is above 250 µM. For the same molecule, the negative logarithm of the EC50 (pEC50) in [3] was 4.11. In addition, in data set [4], the CC50 at 24 h is above 250 µM. Further, the pIC50 in [1] is 3.70.

Regarding `Nc1sc2c(c1C(=O)Nc1ccccn1)CCCCC2`, the pIC50 in data set [1] was 4.46.

In [1], `O=C(Nc1ccccn1)c1c(NC(=O)C2CCCCC2)sc2c1CCCCC2` showed a pIC50 below 3.70.

Take `COc1c(CC(=O)Nc2sc3c(c2C(=O)Nc2ccccn2)CCCCC3)sc2ccccc12`: the CC50 at 48 h in data set [2] was above 250 µM. Moreover, the results for the pEC50 in data set [3], in data set [5] and in [7] were 4.21, below 4.00 and 5.22, respectively. For the same molecule, the CC50 at 24 h in data set [4] is above 250 µM. The same molecule gave a negative logarithm of the IC50 (pIC50) in [1] of 4.05.

The values above are taken from ChEMBL document CHEMBL3108691, “Structural investigation of cycloheptathiophene-3-carboxamide derivatives targeting influenza virus polymerase assembly” (J Med Chem, 2013).
